Results taken from patent publication US20070179161A1, “Pyrazolopyrimidine compounds and their use in medicine” (VERNALIS (CAMBRIDGE) LIMITED., priority 2003, published 2007).

Tests used:
Assay type in all cases: biochemical
[1] = target: CDK-2 enzyme, complexed with cyclin A (Homo sapiens, UniProt P24941); test: CDK2 enzyme inhibition assay (33P phosphorylation of peptide […], filter plate); conditions: CDK-2/cyclin A, 0.1 mM ATP, 40 min at 30° C.
Description: (§1) The assay mixture containing the inhibitor and CDK-2 enzyme, complexed with cyclin A (0.4 U/ml) was mixed together in a microtiter plate in a final volume of 50 μl and incubated for 40 min at 30° C. The assay mixture contained 0.1 mM unlabeled ATP, 0.01 μCi/μl ^33P-γ-ATP, 0.03 mM peptide, 0.1 mg/ml BSA, 7.5 mM magnesium acetate, 50 mM HEPES-NaOH, pH 7.5. The reaction was stopped by adding 50 μl of 50 mM phosphoric acid. 90 μl of the mixture were transferred to a pre-wetted 96-well Multiscreen MAPHNOB filtration plate (Millipore) and filtered on a vacuum manifold. […] The filtration plate was dried for 10 min at 65° C., scintillant added and phosphorylated peptide quantified in a scintillation counter (Trilux, PerkinElmer)
HEPES is N-[2-Hydroxyethyl]piperazine-N′-[2-ethanesulfonic acid] BSA is bovine serum albumin.

[2] = target: T1, GST-Chk1 enzyme (Homo sapiens, UniProt O14757); test: Chk1 kinase inhibition assay (33P phosphorylation of Chktide, filter plate); conditions: 0.01 mM ATP, 11 nM GST-Chk1, 40 minutes at 30° C.; read-out: Chk1 IC50
T1 sequence (O14757 1-476): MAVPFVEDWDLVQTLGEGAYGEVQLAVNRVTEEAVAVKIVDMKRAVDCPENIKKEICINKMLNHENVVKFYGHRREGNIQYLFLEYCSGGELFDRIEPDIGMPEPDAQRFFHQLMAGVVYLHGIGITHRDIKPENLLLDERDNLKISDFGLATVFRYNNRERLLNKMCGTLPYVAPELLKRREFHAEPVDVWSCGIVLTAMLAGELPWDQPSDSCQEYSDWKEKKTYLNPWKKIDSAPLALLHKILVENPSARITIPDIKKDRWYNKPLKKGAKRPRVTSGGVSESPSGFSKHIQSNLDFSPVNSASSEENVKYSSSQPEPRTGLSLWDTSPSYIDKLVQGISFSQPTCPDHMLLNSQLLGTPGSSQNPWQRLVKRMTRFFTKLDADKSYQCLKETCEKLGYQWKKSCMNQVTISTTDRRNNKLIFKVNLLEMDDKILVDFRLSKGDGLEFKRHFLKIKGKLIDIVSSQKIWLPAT
Description: The assay mixture containing the inhibitor and Chk1 enzyme was mixed together in a microtiter plate in a final volume of 50 μl and incubated for 40 minutes at 30° C.
The reaction was stopped by adding 50 μl of 50 mM phosphoric acid. 90 μl of the mixture was transferred to a pre-wetted 96-well Multiscreen MAPHNOB filtration plate (Millipore) and filtered on a vacuum manifold. […] The filtration plate was dried for 10 min at 65° C., scintillant added and phosphorylated peptide quantified in a scintillation counter (Trilux, PerkinElmer)

[3] = target: T2, PDK1 enzyme (Homo sapiens, UniProt O15530); test: PDK1 kinase inhibition assay (33P phosphorylation of synthetic peptide, filter plate); conditions: 0.01 mM ATP, 60 min at 30° C.; read-out: PDK1 IC50
T2 sequence (O15530 1-556): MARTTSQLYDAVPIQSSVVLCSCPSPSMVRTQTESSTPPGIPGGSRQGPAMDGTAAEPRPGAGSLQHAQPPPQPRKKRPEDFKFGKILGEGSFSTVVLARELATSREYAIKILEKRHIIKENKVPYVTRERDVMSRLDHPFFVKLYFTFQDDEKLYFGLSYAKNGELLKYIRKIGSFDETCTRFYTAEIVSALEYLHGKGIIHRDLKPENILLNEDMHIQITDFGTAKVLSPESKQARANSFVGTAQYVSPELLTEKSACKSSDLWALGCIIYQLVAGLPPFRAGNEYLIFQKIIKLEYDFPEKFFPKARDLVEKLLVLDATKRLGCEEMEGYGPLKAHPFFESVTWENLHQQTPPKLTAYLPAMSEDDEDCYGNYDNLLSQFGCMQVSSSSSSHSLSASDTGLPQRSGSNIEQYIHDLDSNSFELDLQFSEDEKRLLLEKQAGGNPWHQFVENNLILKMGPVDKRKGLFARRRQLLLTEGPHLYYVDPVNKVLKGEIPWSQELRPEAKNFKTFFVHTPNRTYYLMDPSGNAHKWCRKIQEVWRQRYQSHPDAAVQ
Description: as §1, with “and PDK1 enzyme” for “and CDK-2 enzyme, complexed with cyclin A (0.4 U/ml)”, “for 60” for “for 40”, “contained 0.01” for “contained 0.1”, “^33P-γ-ATP, 0.075” for “^33P-γ-ATP, 0.03”, “acetate, 0.05M Tris.HCl,” for “acetate, 50 mM HEPES-NaOH,”, “pH 7.5, 0.5% 2-mercaptoethanol.” for “pH 7.5.”

IC50 [1] [µM] | IC50 [2] [µM] | IC50 [3] [µM] | SMILES
0.27 | > 200 | > 200 | CC(C)c1cnn2c(Nc3ccc(S(=O)(=O)N(C)CCO)cc3)cc(N3CCCC(CO)C3)nc12 (stereo not drawn) [Example 55]
0.373 | 5.42 | > 200 | CC(C)COc1cc(Nc2ccc(S(=O)(=O)NCCN(C)C)cc2)n2ncc(C(C)C)c2n1 [Example 90]
1.48 | > 200 | > 200 | CC(C)c1cnn2c(Nc3ccc(S(=O)(=O)N(C)C)cc3)cc(N3CCC(C(N)=O)CC3)nc12 [Example 73]
1.01 | > 200 | > 200 | CC(C)c1cnn2c(Nc3ccc(S(=O)(=O)N(C)C)cc3)cc(N3CCCCC3)nc12 [Example 50]
8.41 | > 200 | > 200 | CC(C)c1cnn2c(Nc3ccc(S(C)(=O)=O)cc3)cc(OCCN(C)C)nc12 [Example 53]
0.128 | 0.953 | 6.91 | CC(C)c1cnn2c(Nc3ccc(S(=O)(=O)N(C)CCN(C)C)cc3)cc(N[C@H]3CC[C@H](N)CC3)nc12 [Example 99]
1.86 | 24.9 | 64.2 | CC(C)c1cnn2c(Nc3ccc(S(=O)(=O)N(C)C)cc3)cc(N3CCC(CN)CC3)nc12 [Example 95]
0.017 | 3.45 | 125 | CC(C)c1cnn2c(Nc3ccc(S(=O)(=O)N(C)C)cc3)cc(O[C@H]3CC[C@H](N)CC3)nc12 [Example 114]
1.46 | > 200 | > 200 | CC(C)c1cnn2c(Nc3ccc(S(=O)(=O)N(C)CCO)cc3)cc(N3CCC(O)CC3)nc12 [Example 48]
0.004 | 2 | 1.54 | CN(C)S(=O)(=O)c1ccc(Nc2cc(N[C@H]3CC[C@H](N)CC3)nc3c(Cl)cnn23)cc1 [Example 148]
0.403 | 80.8 | > 200 | CC(C)c1cnn2c(Nc3ccc(S(=O)(=O)N(C)CCO)cc3)cc(OCCN(C)C)nc12 [Example 39]

Continued, compound first:

SMILES | IC50 [1] [µM] | IC50 [2] [µM] | IC50 [3] [µM]
CC(C)c1cnn2c(Nc3ccc(S(=O)(=O)N(C)C)cc3)cc(NC3CCN(C)CC3)nc12 [Example 69] | 0.181 | 19.3 | 31.6
CC(C)c1cnn2c(Nc3ccc(S(C)(=O)=O)nc3)cc(Cl)nc12 [Example 84] | 0.298 | > 200 | > 200
NC(=O)c1ccc(Nc2cc(Cl)nc3c(Br)cnn23)cc1 [Example 145] | 0.08 | 11 | > 50
CC(C)c1cnn2c(Nc3ccc(S(=O)(=O)N(C)C)cc3)cc(N3CCN(CC4CCN(C)CC4)CC3)nc12 [Example 109] | 10.3 | 15.2 | > 200
CC(C)c1cnn2c(Nc3ccc(S(=O)(=O)N(C)C)cc3)cc(NCCN)nc12 [Example 98] | 7.5 | 18.7 | > 200
CN(C)CCNS(=O)(=O)c1ccc(Nc2cc(Cl)nc3c(Br)cnn23)cc1 [Example 135] | 0.081 | 43 | > 50
N[C@H]1CC[C@H](Nc2cc(Nc3ccc(Oc4ccccc4)cc3)n3ncc(Cl)c3n2)CC1 [Example 187] | 0.054 | 2 | 2
CN(C)S(=O)(=O)c1ccc(Nc2cc(N[C@H]3CC[C@H](N)CC3)nc3c(C4CC4)cnn23)cc1 [Example 128] | 0.022 | 1.03 | 0.178
CC(C)c1cnn2c(Nc3ccc(S(=O)(=O)N(C)C)cc3)cc(OC3CCN(C)C3)nc12 (stereo not drawn) [Example 70] | 0.32 | 79.9 | > 200
CCc1cnn2c(Nc3ccc(S(=O)(=O)N(C)C)cc3)cc(Cl)nc12 [Example 52] | 0.239 | > 200 | > 200
CC(C)c1cnn2c(Nc3ccc(S(=O)(=O)N(C)C)cc3)cc(NCCCN3CCOCC3)nc12 [Example 102] | 0.965 | > 200 | > 200
